From the kinase profiling compilation of Christmann-Franck et al. (2016)
Blank lines part the entries; values can stand above or below the compound they belong to.

Assays:
Experiment in all cases: radiometric filter-binding kinase assay
[1] = test system: AKT1 (human), P31749 [S473D]
IKBKB (human) = IKBKB (human) (UniProt O14920)
MAPK8 (human) = MAPK8 (human) (UniProt P45983)
DYRK1A (human) = DYRK1A (human) (UniProt Q13627)
MAPK14 (human) = MAPK14 (human) (UniProt Q16539)
NEK6 (human) = NEK6 (human) (UniProt Q9HC98)
[2] = test system: RPS6KB1 (human), P23443 [T412E]
TBK1 (human) = TBK1 (human) (UniProt Q9UHD2)
CaMK1 (human) = CaMK1 (human) (UniProt Q14012)
STK3 (human) = STK3 (human) (UniProt Q13188)
Sequence of STK3 (human) (Q13188 whole entry, looked up): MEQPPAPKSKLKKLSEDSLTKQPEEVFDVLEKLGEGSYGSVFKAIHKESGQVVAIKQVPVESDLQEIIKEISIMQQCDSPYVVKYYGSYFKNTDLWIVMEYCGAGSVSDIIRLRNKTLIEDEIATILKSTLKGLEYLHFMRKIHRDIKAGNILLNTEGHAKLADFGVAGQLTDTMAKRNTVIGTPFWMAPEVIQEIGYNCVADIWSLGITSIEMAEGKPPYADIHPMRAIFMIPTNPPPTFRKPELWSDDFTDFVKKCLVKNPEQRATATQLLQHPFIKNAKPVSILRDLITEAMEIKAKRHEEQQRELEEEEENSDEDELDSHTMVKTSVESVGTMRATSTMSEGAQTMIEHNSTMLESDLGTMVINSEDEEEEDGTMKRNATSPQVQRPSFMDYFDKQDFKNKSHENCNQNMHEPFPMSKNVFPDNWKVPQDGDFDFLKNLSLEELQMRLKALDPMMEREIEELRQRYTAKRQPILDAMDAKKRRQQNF

DYRK3 (human) = DYRK3 (human) (UniProt O43781)
MARK3 (human) = MARK3 (human) (UniProt P27448)
Sequence of MARK3 (human) (P27448 whole entry, looked up): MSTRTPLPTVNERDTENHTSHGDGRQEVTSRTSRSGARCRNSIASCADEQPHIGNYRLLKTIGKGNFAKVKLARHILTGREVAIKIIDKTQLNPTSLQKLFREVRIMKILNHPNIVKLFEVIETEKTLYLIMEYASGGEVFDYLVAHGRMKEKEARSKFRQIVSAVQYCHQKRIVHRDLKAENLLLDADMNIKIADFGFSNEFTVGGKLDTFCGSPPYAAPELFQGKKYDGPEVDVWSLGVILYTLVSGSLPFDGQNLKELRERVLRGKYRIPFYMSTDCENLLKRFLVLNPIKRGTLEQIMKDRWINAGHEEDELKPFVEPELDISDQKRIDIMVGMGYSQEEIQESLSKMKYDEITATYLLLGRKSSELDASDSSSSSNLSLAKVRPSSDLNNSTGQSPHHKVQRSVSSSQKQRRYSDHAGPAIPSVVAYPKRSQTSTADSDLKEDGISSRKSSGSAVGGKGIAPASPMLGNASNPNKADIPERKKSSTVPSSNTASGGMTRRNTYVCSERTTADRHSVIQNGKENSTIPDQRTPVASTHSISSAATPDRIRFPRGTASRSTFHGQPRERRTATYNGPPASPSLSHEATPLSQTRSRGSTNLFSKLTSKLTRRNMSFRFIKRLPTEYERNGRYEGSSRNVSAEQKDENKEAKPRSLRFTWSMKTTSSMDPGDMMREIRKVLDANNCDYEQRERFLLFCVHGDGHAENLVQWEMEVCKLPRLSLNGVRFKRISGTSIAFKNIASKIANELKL

PAK4 (human) = PAK4 (human) (UniProt O96013)
PIM1 (human) = PIM1 (human) (UniProt P11309)
Sequence of PIM1 (human) (P11309 whole entry, looked up): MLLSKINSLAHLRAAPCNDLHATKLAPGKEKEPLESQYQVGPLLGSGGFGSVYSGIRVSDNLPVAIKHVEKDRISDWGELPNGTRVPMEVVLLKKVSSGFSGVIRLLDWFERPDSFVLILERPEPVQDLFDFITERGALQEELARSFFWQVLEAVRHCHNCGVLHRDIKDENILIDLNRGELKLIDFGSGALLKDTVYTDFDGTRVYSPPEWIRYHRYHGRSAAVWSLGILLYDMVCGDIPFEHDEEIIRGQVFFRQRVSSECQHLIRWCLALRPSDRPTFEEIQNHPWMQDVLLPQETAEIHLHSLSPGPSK

MAPKAPK2 (human) = MAPKAPK2 (human) (UniProt P49137)
NEK2 (human) = NEK2 (human) (UniProt P51955)
Sequence of NEK2 (human) (P51955 whole entry, looked up): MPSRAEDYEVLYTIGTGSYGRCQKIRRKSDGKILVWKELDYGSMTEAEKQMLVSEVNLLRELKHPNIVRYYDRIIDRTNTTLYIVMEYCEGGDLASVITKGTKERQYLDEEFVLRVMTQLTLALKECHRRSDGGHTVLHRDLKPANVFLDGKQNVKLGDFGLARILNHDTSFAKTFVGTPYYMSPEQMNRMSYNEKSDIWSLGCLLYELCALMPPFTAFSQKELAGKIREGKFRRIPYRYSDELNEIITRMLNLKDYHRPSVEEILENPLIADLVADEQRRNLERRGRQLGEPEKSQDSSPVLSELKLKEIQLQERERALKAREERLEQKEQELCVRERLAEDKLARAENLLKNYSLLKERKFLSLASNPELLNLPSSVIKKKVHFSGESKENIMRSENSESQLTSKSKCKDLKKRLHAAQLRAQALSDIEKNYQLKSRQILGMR

MKNK2 (human) = MKNK2 (human) (UniProt Q9HBH9)
MAPK3 (human) = MAPK3 (human) (UniProt P27361)
Sequence of MAPK3 (human) (P27361 whole entry, looked up): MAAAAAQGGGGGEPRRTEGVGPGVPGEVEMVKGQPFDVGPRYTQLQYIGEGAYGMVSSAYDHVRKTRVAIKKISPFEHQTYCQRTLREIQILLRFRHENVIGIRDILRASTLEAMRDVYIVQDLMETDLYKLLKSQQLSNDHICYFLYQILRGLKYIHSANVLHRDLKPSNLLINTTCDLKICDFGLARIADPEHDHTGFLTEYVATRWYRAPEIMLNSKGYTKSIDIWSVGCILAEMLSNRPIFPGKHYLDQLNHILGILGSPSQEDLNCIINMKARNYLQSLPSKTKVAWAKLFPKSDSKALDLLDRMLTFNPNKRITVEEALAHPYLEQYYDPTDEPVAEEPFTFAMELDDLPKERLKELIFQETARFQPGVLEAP

IKBKE (human) = IKBKE (human) (UniProt Q14164)
RPS6KA1 KD1 KD2 (human) = RPS6KA1 KD1 KD2 (human) (UniProt Q15418)
Sequence of RPS6KA1 KD1 KD2 (human) (Q15418 whole entry, looked up): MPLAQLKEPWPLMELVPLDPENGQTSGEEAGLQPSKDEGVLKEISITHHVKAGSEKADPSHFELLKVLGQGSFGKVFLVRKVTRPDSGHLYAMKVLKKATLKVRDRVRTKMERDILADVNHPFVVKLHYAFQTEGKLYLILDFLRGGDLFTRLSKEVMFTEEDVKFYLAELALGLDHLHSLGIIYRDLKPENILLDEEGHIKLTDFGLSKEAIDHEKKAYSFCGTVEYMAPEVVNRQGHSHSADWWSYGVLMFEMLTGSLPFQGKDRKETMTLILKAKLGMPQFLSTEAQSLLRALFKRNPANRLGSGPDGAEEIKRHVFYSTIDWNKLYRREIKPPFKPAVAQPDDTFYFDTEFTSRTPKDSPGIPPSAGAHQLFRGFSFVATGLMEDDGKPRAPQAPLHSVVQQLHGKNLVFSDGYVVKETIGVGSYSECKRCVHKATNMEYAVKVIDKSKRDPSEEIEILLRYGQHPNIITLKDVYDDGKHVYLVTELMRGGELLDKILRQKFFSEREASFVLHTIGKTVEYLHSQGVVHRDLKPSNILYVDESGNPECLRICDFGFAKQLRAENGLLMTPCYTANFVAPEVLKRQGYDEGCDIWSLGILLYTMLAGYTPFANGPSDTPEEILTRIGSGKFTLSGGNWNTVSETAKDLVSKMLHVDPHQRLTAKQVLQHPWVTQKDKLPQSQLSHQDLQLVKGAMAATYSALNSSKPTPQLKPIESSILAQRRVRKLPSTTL

CSNK1D (human) = CSNK1D (human) (UniProt P48730)
MAPK9 (human) = MAPK9 (human) (UniProt P45984)
Sequence of MAPK9 (human) (P45984 whole entry, looked up): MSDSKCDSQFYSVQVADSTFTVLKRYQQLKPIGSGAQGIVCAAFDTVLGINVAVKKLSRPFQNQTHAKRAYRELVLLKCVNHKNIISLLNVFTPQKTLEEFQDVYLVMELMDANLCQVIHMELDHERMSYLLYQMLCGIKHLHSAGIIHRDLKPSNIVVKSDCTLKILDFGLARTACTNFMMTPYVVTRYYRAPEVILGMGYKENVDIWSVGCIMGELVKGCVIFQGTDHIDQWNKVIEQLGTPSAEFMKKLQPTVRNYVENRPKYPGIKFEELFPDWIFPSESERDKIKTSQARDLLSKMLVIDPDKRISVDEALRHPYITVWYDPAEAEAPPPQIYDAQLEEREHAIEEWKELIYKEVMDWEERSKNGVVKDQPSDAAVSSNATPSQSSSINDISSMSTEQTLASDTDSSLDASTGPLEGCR

CHEK2 (human) = CHEK2 (human) (UniProt O96017)
Sequence of CHEK2 (human) (O96017 whole entry, looked up): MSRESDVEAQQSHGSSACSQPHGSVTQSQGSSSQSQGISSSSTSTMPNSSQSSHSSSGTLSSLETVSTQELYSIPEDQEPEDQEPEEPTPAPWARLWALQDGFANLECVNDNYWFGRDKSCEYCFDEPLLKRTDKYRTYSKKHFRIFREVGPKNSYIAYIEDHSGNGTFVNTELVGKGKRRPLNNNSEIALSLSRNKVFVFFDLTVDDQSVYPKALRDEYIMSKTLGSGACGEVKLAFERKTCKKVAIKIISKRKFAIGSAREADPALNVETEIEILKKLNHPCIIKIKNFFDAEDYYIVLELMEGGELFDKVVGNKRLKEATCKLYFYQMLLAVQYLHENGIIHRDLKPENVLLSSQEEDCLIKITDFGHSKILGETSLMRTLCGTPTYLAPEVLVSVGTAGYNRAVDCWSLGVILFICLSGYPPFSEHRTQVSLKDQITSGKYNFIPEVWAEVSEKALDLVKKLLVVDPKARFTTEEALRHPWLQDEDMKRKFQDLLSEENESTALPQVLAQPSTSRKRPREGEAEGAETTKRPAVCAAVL

MKNK1 (human) = MKNK1 (human) (UniProt Q9BUB5)
Sequence of MKNK1 (human) (Q9BUB5 whole entry, looked up): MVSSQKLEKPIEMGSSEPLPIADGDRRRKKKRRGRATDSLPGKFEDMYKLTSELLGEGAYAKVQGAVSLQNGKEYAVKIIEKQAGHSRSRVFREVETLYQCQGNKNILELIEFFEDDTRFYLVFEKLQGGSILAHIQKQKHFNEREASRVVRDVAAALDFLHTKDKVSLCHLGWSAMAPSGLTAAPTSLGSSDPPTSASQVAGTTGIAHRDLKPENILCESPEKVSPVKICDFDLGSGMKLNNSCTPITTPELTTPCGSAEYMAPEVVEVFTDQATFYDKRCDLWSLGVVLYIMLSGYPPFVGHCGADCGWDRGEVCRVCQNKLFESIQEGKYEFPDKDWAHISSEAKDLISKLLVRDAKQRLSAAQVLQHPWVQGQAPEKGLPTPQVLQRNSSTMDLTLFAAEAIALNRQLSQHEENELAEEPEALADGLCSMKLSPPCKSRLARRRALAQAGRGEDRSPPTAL

MAP2K1 (human) = MAP2K1 (human) (UniProt Q02750)

Sequence of MAPK8 (human) (P45983 whole entry, looked up): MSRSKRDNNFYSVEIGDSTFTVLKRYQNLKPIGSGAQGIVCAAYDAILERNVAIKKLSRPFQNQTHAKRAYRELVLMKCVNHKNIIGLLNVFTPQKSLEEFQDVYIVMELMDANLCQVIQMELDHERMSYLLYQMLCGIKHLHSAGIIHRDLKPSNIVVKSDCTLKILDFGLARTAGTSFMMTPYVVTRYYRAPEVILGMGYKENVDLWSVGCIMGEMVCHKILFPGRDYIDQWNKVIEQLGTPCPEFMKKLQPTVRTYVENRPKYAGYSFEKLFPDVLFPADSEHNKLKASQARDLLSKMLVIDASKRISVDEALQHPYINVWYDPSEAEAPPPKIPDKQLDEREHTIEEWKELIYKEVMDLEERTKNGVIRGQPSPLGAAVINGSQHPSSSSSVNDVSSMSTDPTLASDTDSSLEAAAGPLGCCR

residual activity ([1]; compound 0.1 µM): 90%
residual activity ([1]; compound 1.0 µM): 101%
residual activity (IKBKB (human); compound 0.1 µM): 90%
residual activity (IKBKB (human); compound 1.0 µM): 100%
residual activity (MAPK8 (human); compound 0.1 µM): 92%
residual activity (MAPK8 (human); compound 1.0 µM): 78%
residual activity (DYRK1A (human); compound 0.1 µM): 92%
residual activity (DYRK1A (human); compound 1.0 µM): 96%
residual activity (MAPK14 (human); compound 0.1 µM): 88%
residual activity (MAPK14 (human); compound 1.0 µM): 89%
residual activity (NEK6 (human); compound 0.1 µM): 79%
residual activity (NEK6 (human); compound 1.0 µM): 89%
residual activity ([2]; compound 0.1 µM): 100%
residual activity ([2]; compound 1.0 µM): 98%
residual activity (TBK1 (human); compound 0.1 µM): 92%
residual activity (TBK1 (human); compound 1.0 µM): 96%
residual activity (CaMK1 (human); compound 0.1 µM): 90%
residual activity (CaMK1 (human); compound 1.0 µM): 101%
residual activity (STK3 (human); compound 0.1 µM): 97%
residual activity (STK3 (human); compound 1.0 µM): 89%
residual activity (DYRK3 (human); compound 0.1 µM): 96%
residual activity (DYRK3 (human); compound 1.0 µM): 98%
residual activity (MARK3 (human); compound 0.1 µM): 79%
residual activity (MARK3 (human); compound 1.0 µM): 79%
residual activity (PAK4 (human); compound 0.1 µM): 99%
residual activity (PAK4 (human); compound 1.0 µM): 100%
residual activity (PIM1 (human); compound 0.1 µM): 90%
residual activity (PIM1 (human); compound 1.0 µM): 97%
residual activity (MAPKAPK2 (human); compound 0.1 µM): 102%
residual activity (MAPKAPK2 (human); compound 1.0 µM): 89%
residual activity (NEK2 (human); compound 0.1 µM): 107%
residual activity (NEK2 (human); compound 1.0 µM): 102%
residual activity (MKNK2 (human); compound 0.1 µM): 87%
residual activity (MKNK2 (human); compound 1.0 µM): 91%
residual activity (MAPK3 (human); compound 0.1 µM): 99%
residual activity (MAPK3 (human); compound 1.0 µM): 113%
residual activity (IKBKE (human); compound 0.1 µM): 87%
residual activity (IKBKE (human); compound 1.0 µM): 90%
residual activity (RPS6KA1 KD1 KD2 (human); compound 0.1 µM): 74%
residual activity (RPS6KA1 KD1 KD2 (human); compound 1.0 µM): 78%
residual activity (CSNK1D (human); compound 0.1 µM): 118%
residual activity (CSNK1D (human); compound 1.0 µM): 120%
residual activity (MAPK9 (human); compound 0.1 µM): 94%
residual activity (MAPK9 (human); compound 1.0 µM): 100%
residual activity (CHEK2 (human); compound 0.1 µM): 86%
residual activity (CHEK2 (human); compound 1.0 µM): 83%
residual activity (MKNK1 (human); compound 0.1 µM): 110%
residual activity (MKNK1 (human); compound 1.0 µM): 99%
SMILES: Cn1c(=O)c2c(ncn2C)n(C)c1=O

residual activity ([1]; compound 1.0 µM): 87%
residual activity ([1]; compound 10.0 µM): 90%
residual activity (MAPK8 (human); compound 1.0 µM): 83%
residual activity (MAPK8 (human); compound 10.0 µM): 107%
residual activity (DYRK1A (human); compound 1.0 µM): 85%
residual activity (DYRK1A (human); compound 10.0 µM): 92%
residual activity (MAPK14 (human); compound 1.0 µM): 76%
residual activity (MAPK14 (human); compound 10.0 µM): 82%
residual activity (NEK6 (human); compound 1.0 µM): 83%
residual activity (NEK6 (human); compound 10.0 µM): 87%
residual activity (MAP2K1 (human); compound 1.0 µM): -2%
residual activity (MAP2K1 (human); compound 10.0 µM): 2%
residual activity ([2]; compound 1.0 µM): 88%
residual activity ([2]; compound 10.0 µM): 100%
residual activity (TBK1 (human); compound 1.0 µM): 106%
residual activity (TBK1 (human); compound 10.0 µM): 94%
residual activity (CaMK1 (human); compound 1.0 µM): 89%
residual activity (CaMK1 (human); compound 10.0 µM): 104%
residual activity (STK3 (human); compound 1.0 µM): 99%
residual activity (STK3 (human); compound 10.0 µM): 102%
residual activity (DYRK3 (human); compound 1.0 µM): 78%
residual activity (DYRK3 (human); compound 10.0 µM): 96%
residual activity (MARK3 (human); compound 1.0 µM): 92%
residual activity (MARK3 (human); compound 10.0 µM): 85%
residual activity (PAK4 (human); compound 1.0 µM): 103%
residual activity (PAK4 (human); compound 10.0 µM): 106%
residual activity (PIM1 (human); compound 1.0 µM): 89%
residual activity (PIM1 (human); compound 10.0 µM): 93%
residual activity (MAPKAPK2 (human); compound 1.0 µM): 72%
residual activity (MAPKAPK2 (human); compound 10.0 µM): 96%
residual activity (NEK2 (human); compound 1.0 µM): 87%
residual activity (NEK2 (human); compound 10.0 µM): 92%
residual activity (MKNK2 (human); compound 1.0 µM): 92%
residual activity (MKNK2 (human); compound 10.0 µM): 97%
residual activity (MAPK3 (human); compound 1.0 µM): 107%
residual activity (MAPK3 (human); compound 10.0 µM): 82%
residual activity (IKBKE (human); compound 1.0 µM): 84%
residual activity (IKBKE (human); compound 10.0 µM): 93%
residual activity (RPS6KA1 KD1 KD2 (human); compound 1.0 µM): 80%
residual activity (RPS6KA1 KD1 KD2 (human); compound 10.0 µM): 91%
residual activity (CSNK1D (human); compound 1.0 µM): 105%
residual activity (CSNK1D (human); compound 10.0 µM): 115%
residual activity (MAPK9 (human); compound 1.0 µM): 91%
residual activity (MAPK9 (human); compound 10.0 µM): 95%
residual activity (CHEK2 (human); compound 1.0 µM): 82%
residual activity (CHEK2 (human); compound 10.0 µM): 94%
residual activity (MKNK1 (human); compound 1.0 µM): 85%
SMILES: O=C1NC(=S)N[C@@H]1Cc1c[nH]c2ccccc12
